Active and inactive are the calls of the source.

Assay [1] has as its system Vero. The experiment in a line: Vero 76 cell viability after compound exposure – Vero 76 cells, synthesized analogs, cytotoxicity control for West Nile virus antiviral project, SAR follow-up (AID 2414). Particulars: Chlorocebus sabaeus. In kind it is functional.
The subject of assay [2] is Vero. The experiment in a line: Vero cell viability after compound exposure – synthesized analogs, set II, cytotoxicity control for West Nile virus antiviral project, SAR follow-up (AID 2402). Particulars: Chlorocebus sabaeus. In kind it is functional.
A short description of assay [3]: A Cell Based Assay for the Identification of Probe candidate Compounds with Anti- Venezuelan Equine Encephalitis virus. [Related pubchem assays: 2409, 2419, 1621, 2238, 2405, 2024, 2065, 2402, 2414, 1635, 1650, 2244 ]. Format: functional.
Assay [4] relates to BJ. The assay is described as follows: BJ-TERT fibroblast viability loss – cell-based, RAS-independent, luminescence, dose response (AID 1933). Format: functional. As to conditions: Homo sapiens.
The next assay addresses Beta-galactosidase (Escherichia coli, UniProt Q8VNN2). The assay is described as follows: PubChem AID 485352. Format: functional.
For assay [5], the system named is Vero. The experiment in a line: mammalian cell viability reduction – secondary assay, cytotoxicity control for West Nile virus antiviral project, dose response (AID 1650). In kind it is functional. Particulars: Chlorocebus sabaeus.
For assay [6], the system named is BJ. The experiment in a line: cells. In kind it is functional, cell-based. Particulars: Homo sapiens.
The nature of assay [7]: microbe, parasite or virus in culture. In kind it is functional. As to conditions: Mycobacterium tuberculosis.
Assay [8] can be described thus: Luminescence-based dose response cell-based high throughput screening assay for cytotoxic compounds using the IEC-6 intestinal epithelial cell line. [Related pubchem assays: 1858 (Summary AID.), 1825 (Counterscreen.), 1907 (Confirmation screen.)]. In kind it is functional. A general note: A counterscreen serves to expose hits that act by an unwanted route or on another target.

Assay [9] deals with T1, Type-1 angiotensin II receptor (Homo sapiens, UniProt P30556).
T1 sequence (P30556 whole entry): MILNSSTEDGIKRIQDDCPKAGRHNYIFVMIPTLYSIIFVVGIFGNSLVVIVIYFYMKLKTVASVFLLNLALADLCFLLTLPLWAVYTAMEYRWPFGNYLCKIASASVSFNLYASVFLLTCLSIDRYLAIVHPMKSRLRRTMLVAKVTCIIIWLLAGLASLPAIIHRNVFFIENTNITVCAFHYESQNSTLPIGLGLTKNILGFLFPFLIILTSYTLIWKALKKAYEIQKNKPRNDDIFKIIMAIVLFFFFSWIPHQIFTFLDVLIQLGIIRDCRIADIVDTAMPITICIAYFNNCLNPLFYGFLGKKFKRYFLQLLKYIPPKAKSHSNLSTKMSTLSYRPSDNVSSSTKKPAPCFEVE
The assay is described as follows: antagonism of angiotensin II type 1 receptor – cell-based, uHTS hits, selectivity assay for APJ receptor antagonist project, dose response (AID 463214).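 Note: antagonist potency against angiotensin II stimulated AT1 response.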 Format: functional.

For assay [10], the system named is BJ. The assay is described as follows: BJ-TERT-LT-ST fibroblast viability loss – cell-based, RAS-independent, luminescence, dose response (AID 1935).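 Note: BJ fibroblasts immortalized with TERT plus LT and ST oncogenes.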 Particulars: Homo sapiens. In kind it is functional.
Assay [11] in a line: DRD fibroblast viability loss – cell-based, non-viral oncogenic, luminescence, dose response (AID 1934). Particulars: Homo sapiens. Format: functional.
Assay [12] has as its target Heat shock protein HSP 90-alpha (Homo sapiens, UniProt P07900). In kind it is functional, organism-based.
Assay [13] has as its system BJ. The assay is described as follows: growth inhibition of engineered Ras-driven BJ cells – cell-based, alamar blue fluorescence, cherrypicked samples, dose response (AID 2631).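 Note: confirmatory dose-response assay in RAS-dependent BJ fibroblasts engineered with TERT, LT and ST, with cytotoxicity read by fluorescence.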 Format: functional. Particulars: Homo sapiens. For orientation: The colour change of resazurin is a common sign of viable cells or microbes.
For assay [14], the system named is Escherichia coli. The assay is described as follows: microbe, parasite or virus in culture.
Assay [15] relates to Escherichia coli. The experiment in a line: microbe, parasite or virus in culture. The source holds these as a separate data set.
For assay [16], the target named is T2, Bcl-2-related protein A1 (Mus musculus, UniProt Q07440).
T2 sequence (Q07440 whole entry): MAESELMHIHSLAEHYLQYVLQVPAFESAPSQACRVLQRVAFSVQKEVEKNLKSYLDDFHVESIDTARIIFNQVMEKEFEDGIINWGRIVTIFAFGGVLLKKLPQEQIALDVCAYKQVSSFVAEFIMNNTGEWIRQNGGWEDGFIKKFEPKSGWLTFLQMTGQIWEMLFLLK
The experiment in a line: displacement of Bid BH3 peptide from Bfl-1 – biochemical, fluorescence polarization, FITC-Bid, mouse, primary screen (AID 432). On the technique in general: Fluorescence polarisation rises when a labelled molecule tumbles more slowly, as on binding a larger partner.

The target of assay [17] is T2, Bcl-2-related protein A1. The experiment in a line: small-molecule antagonists of Bfl-1/BH3 interaction – biochemical, TR-FRET, mouse Bfl-1, confirmation (AID 621).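 Note: TR-FRET binding of GST-Bfl-1 to FITC-labelled Bid peptide via terbium antibody.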
A further assay has as its target Genome polyprotein (Hepatitis C virus, UniProt Q2Q167). The experiment in a line: disruption of hepatitis C core self-association – biochemical, TR-FRET, dose response (AID 2159).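 Note: blocks dimerization of HCV core protein measured by TR-FRET between tagged core106 pairs.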 Set-up: species or system Hepacivirus hominis.
Assay [18] has as its system HEK293. The assay is described as follows: inhibition of NOD1-driven NF-kB reporter – cell-based, luminescence, uHTS, primary screen (AID 1578). In kind it is functional. As to conditions: Homo sapiens.
Assay [19] in a line: decrease of insulin promoter-GFP reporter – imaging, high-content screening, mouse beta cells (AID 1628). In kind it is functional. Particulars: MIN6.
Assay [20] relates to Streptococcus sp. 'group A'. The experiment in a line: Streptococcus pyogenes SK(-)GAS viability under kanamycin – luminescence, BacTiterGlo, confirmation, counter-screen for streptokinase expression inhibitor project, dose response (AID 1900). In kind it is functional, organism-based.
The test system of assay [21] is HEK293. The assay is described as follows: cells. In kind it is functional, cell-based. Particulars: Homo sapiens.
Assay [22] is described as follows: MIN6 cell viability loss – mouse insulinoma, cytotoxicity control, dose response (AID 2122).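 Note: confirmatory high-throughput counterscreen run to flag cytotoxic compounds.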 Format: functional.
The test system of assay [23] is HEK293. The assay is described as follows: cells. As to conditions: Homo sapiens. In kind it is functional, cell-based. This is another data set of the same source.
The test system of assay [24] is HEK293. The assay is described as follows: NOD2 signaling inhibitors in MDP-stimulated cells, cell-based, uHTS, luminescence (AID 2001). As to conditions: Homo sapiens. In kind it is functional.
The subject of the next assay is Streptococcus. The experiment in a line: GAS UMAA2166 growth inhibition – luminescence, BacTiterGlo, counter-screen for streptokinase expression inhibitor project, dose response (AID 1915).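 Note: potency for reduction of bacterial viability or growth.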 In kind it is functional, organism-based.
In assay [25] the target is Serine/threonine-protein phosphatase PP1-alpha catalytic subunit (Homo sapiens, UniProt P62136). The experiment in a line: inhibition of protein phosphatase 1 activity – biochemical, fluorescence, dose response (AID 2394).
Assay [26] addresses Serine/threonine-protein phosphatase (Homo sapiens, UniProt Q9BPW0). The experiment in a line: inhibition of protein phosphatase 5 activity – biochemical, fluorescence, dose response (AID 2395).

Beta-galactosidase, sequence (Q8VNN2 whole entry): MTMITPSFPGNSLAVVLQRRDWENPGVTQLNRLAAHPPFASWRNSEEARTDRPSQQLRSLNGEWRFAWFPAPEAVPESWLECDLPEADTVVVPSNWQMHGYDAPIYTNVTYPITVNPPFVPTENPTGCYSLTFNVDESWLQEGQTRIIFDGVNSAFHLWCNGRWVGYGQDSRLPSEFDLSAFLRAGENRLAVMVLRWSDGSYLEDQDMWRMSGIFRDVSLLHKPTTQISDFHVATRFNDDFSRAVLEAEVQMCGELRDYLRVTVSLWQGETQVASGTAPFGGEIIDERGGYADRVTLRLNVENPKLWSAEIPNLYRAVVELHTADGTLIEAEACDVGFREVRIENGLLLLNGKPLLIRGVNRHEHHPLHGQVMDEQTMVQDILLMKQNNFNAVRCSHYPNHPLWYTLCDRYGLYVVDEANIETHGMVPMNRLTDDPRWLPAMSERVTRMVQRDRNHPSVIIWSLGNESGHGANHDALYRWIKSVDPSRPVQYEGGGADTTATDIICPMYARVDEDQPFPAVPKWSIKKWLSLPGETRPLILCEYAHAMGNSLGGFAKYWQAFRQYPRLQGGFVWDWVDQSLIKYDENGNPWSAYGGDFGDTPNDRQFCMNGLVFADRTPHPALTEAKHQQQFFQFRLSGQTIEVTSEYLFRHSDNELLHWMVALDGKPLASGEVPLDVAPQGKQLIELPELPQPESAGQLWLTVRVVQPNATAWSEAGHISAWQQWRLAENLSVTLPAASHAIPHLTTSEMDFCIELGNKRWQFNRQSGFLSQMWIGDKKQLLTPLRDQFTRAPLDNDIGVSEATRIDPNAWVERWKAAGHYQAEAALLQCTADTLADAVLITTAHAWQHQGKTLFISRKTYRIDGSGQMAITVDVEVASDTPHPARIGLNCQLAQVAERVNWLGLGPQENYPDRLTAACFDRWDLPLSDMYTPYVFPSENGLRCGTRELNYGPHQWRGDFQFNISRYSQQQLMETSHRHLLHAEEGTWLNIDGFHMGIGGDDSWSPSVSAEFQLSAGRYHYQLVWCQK
Serine/threonine-protein phosphatase PP1-alpha catalytic subunit, sequence (P62136 whole entry): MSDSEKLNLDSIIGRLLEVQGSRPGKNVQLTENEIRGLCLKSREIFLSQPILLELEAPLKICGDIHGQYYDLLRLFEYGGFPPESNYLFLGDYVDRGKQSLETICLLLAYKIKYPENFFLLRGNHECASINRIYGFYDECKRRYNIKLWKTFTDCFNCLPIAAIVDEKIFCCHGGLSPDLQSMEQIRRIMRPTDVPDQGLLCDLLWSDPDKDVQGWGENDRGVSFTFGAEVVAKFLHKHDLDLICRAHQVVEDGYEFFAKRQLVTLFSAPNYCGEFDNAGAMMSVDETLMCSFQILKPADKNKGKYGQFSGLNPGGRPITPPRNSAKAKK
Serine/threonine-protein phosphatase, sequence (Q9BPW0 whole entry): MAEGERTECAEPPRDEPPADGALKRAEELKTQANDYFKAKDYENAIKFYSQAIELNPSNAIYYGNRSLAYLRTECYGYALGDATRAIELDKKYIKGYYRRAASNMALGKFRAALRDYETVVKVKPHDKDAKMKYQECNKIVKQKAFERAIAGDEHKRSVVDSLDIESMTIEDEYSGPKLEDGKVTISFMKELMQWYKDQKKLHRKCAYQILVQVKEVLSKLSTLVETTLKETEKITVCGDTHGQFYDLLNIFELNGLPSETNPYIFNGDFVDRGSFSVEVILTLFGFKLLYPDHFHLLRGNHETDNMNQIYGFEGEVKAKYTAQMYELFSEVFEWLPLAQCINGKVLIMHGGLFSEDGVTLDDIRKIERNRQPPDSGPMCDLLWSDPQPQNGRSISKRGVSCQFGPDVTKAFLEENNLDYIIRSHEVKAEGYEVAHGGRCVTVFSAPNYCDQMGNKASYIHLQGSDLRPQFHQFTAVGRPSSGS
Genome polyprotein, sequence (Q2Q167 whole entry): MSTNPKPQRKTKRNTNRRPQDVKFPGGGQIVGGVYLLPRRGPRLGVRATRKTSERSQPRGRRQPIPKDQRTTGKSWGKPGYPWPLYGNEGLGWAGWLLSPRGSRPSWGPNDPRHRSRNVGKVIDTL

As a reminder, the IC50 is the point on the concentration scale where inhibition reaches its midpoint. Regarding `COc1cccc2c(=O)n(-c3ccccc3)c(SCC(=O)Nc3ccc4c(c3)CCC4)nc12`, the values for the CC50 with Vero [1] and with Vero [2] were < 0.26 µM (active) and > 200 µM (active), respectively. In addition, the IC50 in [3] is < 0.26 µM (active).
One may read the EC50 as the concentration needed to bring the measured effect to its halfway point. What is called AC50 is the concentration at which the activity in the assay is half-maximal. On to `Cc1ccc(C(=O)Sc2cccccc2=O)cc1`, for which the EC50 in the assay on BJ [4] is 0.659 µM (inconclusive); on Beta-galactosidase, > 40 µM (inactive); in the assay with BJ [6], 26 µM (active); in the assay on BJ [10], 54.9 µM (active); in [11], 25.5 µM (active); in the assay with BJ [13], 0.075 µM (active). Also, the CC50 in the assay on Vero [5] was 48.4 µM (active); in [7], 11.5 µM (active). Moreover, the IC50 was 0.848 µM (active) in assay [8] and < 1.25 µM (active) in assay [9]. Also, the half-maximal activity concentration (AC50) in assay [12] is 6.06 µM (active); in the assay on Escherichia coli [14], 12.7 µM (active); in the assay with Escherichia coli [15], 17 µM (active).
Regarding `C1=C(c2ccc(-c3ccccc3)cc2)Nc2ncnn2C1c1ccco1` (centres undefined), the IC50 at Bcl-2-related protein A1 [16] and on Bcl-2-related protein A1 [17] was > 100 µM (not active) each time.
Regarding `CC(C)=CCc1c(O)cc2oc3c(CC=C(C)C)c(O)c(O)c(CC=C(C)C)c3c(=O)c2c1O` [GARCINONE E], the half-maximal inhibitory concentration (IC50) against Genome polyprotein was > 49.8 µM (not active); in [19], 2.79 µM (active); with HEK293 [21] it was > 20 µM (inactive); in assay [22] it was 3.46 µM (active); in the assay with HEK293 [23], 6.77 µM (active); in the assay on HEK293 [24], 4.65 µM (inactive). The values for the EC50 (in the assay with HEK293 [18]; in assay [20]; with Streptococcus) were 4.78 µM (active), 0.813 µM (active) and 3.02 µM (active), respectively.
Turning to `COCCNC(=O)c1c(N)n(CCC(C)C)c2nc3ccccc3nc12`, the IC50 in assay [25] is recorded as 56.5 µM (not active); in assay [26], 13.4 µM (not active).

For the origin of these results see ChEMBL document CHEMBL1201862, “PubChem BioAssay data set” (2004).
